According to patent US9393288B2, “Methods of treating diseases associated with PPARγ” (The University of Vermont and State Agricultural College, priority 2012, dated 2016):
Entries after “also recorded” stand apart in the source; their conditions may differ.

Legend:
[1] = rat, in vivo
Experimental: (§1) A separate group of SHR-F was used to determine if relaxin crosses the BBB by treating with relaxin (4 μg/hr) for 14 days and measuring relaxin concentration in cerebrospinal fluid (CSF) and serum (SHR-F-Rln-CSF, n=4). For the osmotic pump implant, animals were anesthetized with 3% isoflurane and minipumps implanted subcutaneously in the back of the neck. All animals received post-surgical analgesia (buprenorphine, 50 μg/kg, s.c.). Relaxin infusion was continuous for 14 days until animals were euthanized for isolated vessel experiments and tissue collection.
Animals were anesthetized with isoflurane (3% in oxygen), decapitated, and trunk blood was collected for measurement of circulating relaxin. Serum was then collected and stored at −80° C. for determination of relaxin levels by enzyme-linked immunosorbent assay (ELISA) following manufacturer's instructions (Human Relaxin-2 Quantikine ELISA Kit, R&D Systems, Minneapolis, Minn., USA). Serum samples were diluted by 1:500 in the assay.
To determine the presence of relaxin in CSF, animals were anesthetized and CSF collected through a needle inserted into the cisterna magna (Liu, L., and Duff, K. (2008) A technique for serial collection of cerebrospinal fluid from the cisterna magna in mouse. Journal of visualized experiments: JoVE). […] Relaxin levels were determined in serum and CSF by ELISA as described above, except CSF was not diluted.

[2] = system: parenchymal arterioles (PA); assay: Pressurized arteriograph: vascular reactivity and structure of PA from female SHR; format: in vivo, rat
Experimental: as §1
After collecting trunk blood, the brain was quickly removed and placed in cold physiological salt solution (PSS). PA between the M1 and M2 region of the MCA territory and the MCA from the same animals were carefully isolated from WKY-F, SHR-F, and SHR-F-Rln groups and mounted on glass cannulas. PA were identified as branches off the MCA that penetrated into the brain tissue, as previously described (han, S. L., and Cipolla, M. J. (2011) Relaxin causes selective outward remodeling of brain parenchymal arterioles via activation of peroxisome proliferator-activated receptor-gamma. FASEB J 25, 3229-3239). […] The proximal cannula was connected to an in-line pressure transducer and a servo-null pressure control system (Living Systems Instrumentation, Burlington, Vt., USA) that allowed intravascular pressure to be maintained at a set pressure or changed at a variable rate. The distal cannula was closed during the experiment to avoid flow-mediated responses. Temperature and pH were continuously measured and maintained at 37.0±0.5° C. and 7.40±0.05, respectively. Measurements of inner diameter (ID) and wall thickness (WT) were made via video microscopy (Living Systems Instrumentation, Burlington, Vt.).
PA and MCA were equilibrated for 1 hour, after which myogenic activity was determined by stepwise increases in pressure from 40 to 100 mmHg for PA or 50 to 175 mmHg for MCA. ID and WT were measured at each pressure once stable. Endothelium-dependent dilation was studied by adding NS309 (10^−8-10^−5 M), an activator of small- and intermediate-conductance calcium-activated potassium channels (SKCa, IKCa). NS309 was washed out of the bath and a single concentration of the nitric oxide synthase (NOS) inhibitor L-nitro-n-arginine (L-NNA, 10^−4 M) added to the bath. Constriction to NOS inhibition was used as an additional indicator of endothelial function. In the presence of L-NNA, sodium nitroprusside (SNP, 10^−8-10^−5 M) was added to the bath to assess endothelium-independent vasodilation. To obtain structural measurements, ID and WT were recorded at pressures between 5 to 200 mmHg for PA or 5 to 175 mmHg for MCA in zero-calcium PSS containing ethylene glycol tetra-acetic acid (EGTA) and outer diameter (OD) and distensibility calculated.
Percent tone was calculated as percent decrease in ID from the passive diameter at each intravascular pressure: [1−(IDactive/IDpassive)]×100. Percent reactivity for vasodilators was calculated as ((IDdose−IDstart)/(IDpassive−IDstart))×100. Percent constriction for vasoconstrictor was calculated as (1−(IDdose/IDstart))×100. OD was calculated from measured ID and WT: ID+2WT. Distensibility at a given pressure was calculated as (IDpassive−IDoriginal)/(IDoriginal)×100, where IDoriginal is defined as passive inner diameter determined at lowest pressure (5 mmHg). Data from qPCR study were analyzed using the −2^ΔΔCT method, as described previously (Livak, K. J., and Schmittgen, T. D. (2001) Analysis of relative gene expression data using real-time quantitative PCR and the 2(−Delta Delta C(T)) Method. Methods 25, 402-408). Data were removed when the Ct values of technical replicates differed by more than 0.5.

[3] = system: middle cerebral arteries (MCA); assay: Pressurized arteriograph: structure of MCA from female SHR; format: in vivo, rat; settings: SHR-F-Rln vs untreated SHR-F
Experimental: as §1
After collecting trunk blood, the brain was quickly removed and placed in cold physiological salt solution (PSS). […] Temperature and pH were continuously measured and maintained at 37.0±0.5° C. and 7.40±0.05, respectively. […]
PA and MCA were equilibrated for 1 hour, after which myogenic activity was determined by stepwise increases in pressure from 40 to 100 mmHg for PA or 50 to 175 mmHg for MCA. ID and WT were measured at each pressure once stable. […] To obtain structural measurements, ID and WT were recorded at pressures between 5 to 200 mmHg for PA or 5 to 175 mmHg for MCA in zero-calcium PSS containing ethylene glycol tetra-acetic acid (EGTA) and outer diameter (OD) and distensibility calculated.
Percent tone was calculated as percent decrease in ID from the passive diameter at each intravascular pressure: [1−(IDactive/IDpassive)]×100. […]

brain capillaries = assay: Brain capillary density (von Willebrand factor immunohistochemistry, capillary counting) in SHR; format: in vivo, rat; settings: relaxin-treated SHR vs WKY and untreated SHR
[4] = SHR-F-Rln vs untreated SHR-F, listed as Relaxin

With relaxin the “Relaxin in CSF as share of that in the circulation” value [1] was “about 0.3%”, the “Relaxin in cerebrospinal fluid” value [1] was 110 ± 30 pg/mL and the “Reactivity of PA to NS309 (inner diameter increased by)” value ([2]; NS309 10^−6 M, vs 39±11% in SHR-F, p=0.058) was 67±8%. For the same substance, the PA inner diameter ([2]; SHR treated with human relaxin-2 4 μg/hr 14 days, untreated groups 58±3 and 49±3, p<0.05) was 56±4 μm, the PA distensibility ([2]; SHR, relaxin 4 μg/hr 14 days, vs 10±2% in SHR-F, p<0.05) was 34±2% and the “Myogenic reactivity (active ID) of PA” value ([2]; SHR-F-Rln vs untreated SHR-F) was “did not affect”. The “Myogenic tone (percent tone) of PA” value ([2]; SHR-F-Rln vs untreated SHR-F) was “did not affect”, the “Passive ID of PA” value ([2]; SHR-F-Rln vs untreated SHR-F) was “increases the size; also recorded: increased” and the “Passive OD of PA” value ([2]; SHR-F-Rln vs untreated SHR-F) was “increased”. For the same substance, the “Passive distensibility of PA” value ([2]; SHR-F-Rln vs untreated SHR-F) was “increased”, the “Myogenic tone (percent tone) of PA” value [2, 4] was “without affecting” and the “Passive ID of PA” value [2, 4] was “increased”. The “Passive distensibility of PA” value [2, 4] was “big effect; also recorded: increased”, the “Reactivity of PA to the SKCa/IKCa activator NS309” value [2, 4] was “tended to increase; also recorded: increased” and the “Passive ID of PA” value ([2]; at 5 mmHg, vs 44±2 μm in SHR-F) was 42±3 μm. The “Kind of structural remodeling of PA” value ([2]; hypertensive rats, relaxin alone) was “outward eutrophic remodeling”, the “Structure of MCA (passive ID, WT, distensibility)” value [3] was “no effect” and the “Number of capillaries in the brain (capillary density)” value (brain capillaries) was “significant increase”.
